What was measured:
[1] = tested on: HCT-116; assay: Cytotoxicity against human HCT116 cells assessed as cell survival at 5 to 40 uM after 7 days by crystal violet staining assay; type: functional, cell-based; settings: HCT-116, 168 h
[2] = tested on: HCT-116; assay: Cytotoxicity against human HCT116 cells by MTT assay; type: functional, cell-based

Structure (SMILES)	IC50 [1] [µM]	IC50 [2] [µM]
COc1cc(OC)cc(C(=O)/C=C/C2=Cc3cc(Br)ccc3OC2)c1	3.4	
COc1ccc2c(c1)C=C(C(=O)/C=C/C1=Cc3cccc(OC)c3OC1)CO2	7.19	
COc1ccc2c(c1)C=C(C(=O)/C=C/c1ccc(OC)cc1OC)CO2	3.97	
COc1ccc2c(c1)C=C(C(=O)/C=C/c1ccccc1OC)CO2	1.62	
O=C(O[C@H]1Cc2c(O)cc(O)cc2O[C@@H]1c1ccc(O)c(O)c1)c1cc(O)c(O)c(O)c1 [CATECHIN GALLATE]		53
O=C(O[C@@H]1Cc2c(O)cc(O)cc2O[C@@H]1c1ccc(O)c(O)c1)c1cc(O)c(O)c(O)c1 [EPICATECHIN GALLATE]		76
COc1ccc2c(c1)C=C(C(=O)/C=C/C1=Cc3ccc(OC)cc3OC1)CO2	18.8	
COc1cc(OC)cc(C(=O)/C=C/C2=Cc3cc(OC)ccc3OC2)c1	35.5	
COc1cccc(C(=O)/C=C/C2=Cc3cc(Br)ccc3OC2)c1	4.56	
COc1ccc(/C=C/C(=O)C2=Cc3cc(OC)ccc3OC2)cc1	0.59	
COc1ccccc1C(=O)/C=C/C1=Cc2cc(Br)ccc2OC1	6.13	
COc1ccc(C(=O)/C=C/C2=Cc3ccc(OC)cc3OC2)cc1	10.5	
COc1ccc(C(=O)/C=C/C2=Cc3cc(OC)ccc3OC2)cc1	7.95	
COc1cc(/C=C/C(=O)C2=Cc3cc(OC)ccc3OC2)cc(OC)c1	0.33	
COc1ccc2c(c1)C=C(/C=C/C(=O)c1ccccc1OC)CO2	1.04	
COc1ccc2c(c1)C=C(C(=O)/C=C/c1cc(OC)c(OC)cc1OC)CO2	2.5	
COc1ccc2c(c1)C=C(/C=C/C(=O)C1=Cc3cc(OC)ccc3OC1)CO2	12.9	
